Test results taken from the supplement of paper PMC10307832.

How the values were obtained:
Experiment in all cases: relative viability (nuclei count vs DMSO), 5 days (fraction); higher = more cells survive
NCI-H1993 = tested on: NCI-H1993
Method in brief: (§1)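 Cells from lung cancer lines were seeded into 1536-well plates and, one day later, dosed by pin tool. Treatments were either a single drug or a fixed dose of an anchor drug with five library-drug doses (not always all listed) in √10 steps. After 5 days, nuclei were stained in a one-step fixation (final 0.05% Triton X-100, 1% formaldehyde, 1 ug/ml Hoechst) and counted on 4× images, and relative viability is the treated-to-vehicle nuclei ratio, as the median of duplicate plates.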

NCI-H1944 = tested on: NCI-H1944
Method in brief: as §1

NCI-H358 = tested on: NCI-H358
Method in brief: as §1

LXF-289 = tested on: LXF-289
Method in brief: as §1

NCI-H1792 = tested on: NCI-H1792
Method in brief: as §1

COR-L 105 = tested on: COR-L 105
Method in brief: as §1

NCI-H2023 = tested on: NCI-H2023
Method in brief: as §1

NCI-H2170 = tested on: NCI-H2170
Method in brief: as §1

NCI-H520 = tested on: NCI-H520
Method in brief: as §1

NCI-H2087 = tested on: NCI-H2087
Method in brief: as §1

H3255 = tested on: H3255
Method in brief: as §1

SK-MES-1 = tested on: SK-MES-1
Method in brief: as §1

HCC-827 = tested on: HCC-827
Method in brief: as §1

NCI-H1793 = tested on: NCI-H1793
Method in brief: as §1

SW 1573 = tested on: SW 1573
Method in brief: as §1

LOU-NH91 = tested on: LOU-NH91
Method in brief: as §1

LCLC-103H = tested on: LCLC-103H
Method in brief: as §1

NCI-H1975 = tested on: NCI-H1975
Method in brief: as §1

HCC-44 = tested on: HCC-44
Method in brief: as §1

NCI-H1915 = tested on: NCI-H1915
Method in brief: as §1

A-427 = tested on: A-427
Method in brief: as §1

CCNC(=O)c1noc(-c2cc(C(C)C)c(O)cc2O)c1-c1ccc(CN2CCOCC2)cc1 [Luminespib] + Cc1nc(NC(=O)N2CCC[C@H]2C(N)=O)sc1-c1ccnc(C(C)(C)C(F)(F)F)c1 [Alpelisib] (partner 2 µM) gave a relative viability (NCI-H1993; first compound 0.002 µM) of 0.676, a relative viability (NCI-H1993; first compound 0.006325 µM) of 0.74 and a relative viability (NCI-H1993; first compound 0.02 µM) of 0.588. It also gave a relative viability (NCI-H1993; first compound 0.06325 µM) of 0.606, a relative viability (NCI-H1993; first compound 0.2 µM) of 0.548 and a relative viability (NCI-H1944; first compound 0.002 µM) of 0.861. It also gave a relative viability (NCI-H1944; first compound 0.006325 µM) of 0.826, a relative viability (NCI-H1944; first compound 0.02 µM) of 0.539 and a relative viability (NCI-H1944; first compound 0.06325 µM) of 0.755. It also gave a relative viability (NCI-H1944; first compound 0.2 µM) of 0.781, a relative viability (NCI-H358; first compound 0.002 µM) of 0.841 and a relative viability (NCI-H358; first compound 0.006325 µM) of 0.76. It also gave a relative viability (NCI-H358; first compound 0.02 µM) of 0.635, a relative viability (NCI-H358; first compound 0.06325 µM) of 0.117 and a relative viability (NCI-H358; first compound 0.2 µM) of 0.128. The relative viability (LXF-289; first compound 0.002 µM) was 1.03, the relative viability (LXF-289; first compound 0.006325 µM) was 0.97 and the relative viability (LXF-289; first compound 0.02 µM) was 1.09. It also gave a relative viability (LXF-289; first compound 0.06325 µM) of 0.52, a relative viability (LXF-289; first compound 0.2 µM) of 0.161 and a relative viability (NCI-H1792; first compound 0.002 µM) of 0.595. For the same compound, the relative viability (NCI-H1792; first compound 0.006325 µM) was 0.621, the relative viability (NCI-H1792; first compound 0.02 µM) was 0.355 and the relative viability (NCI-H1792; first compound 0.06325 µM) was 0.308. For the same compound, the relative viability (NCI-H1792; first compound 0.2 µM) was 0.1, the relative viability (COR-L 105; first compound 0.002 µM) was 1.04 and the relative viability (COR-L 105; first compound 0.006325 µM) was 0.96. It also gave a relative viability (COR-L 105; first compound 0.02 µM) of 1.35, a relative viability (COR-L 105; first compound 0.06325 µM) of 0.343 and a relative viability (COR-L 105; first compound 0.2 µM) of 0.181. For the same compound, the relative viability (NCI-H2023; first compound 0.002 µM) was 0.59, the relative viability (NCI-H2023; first compound 0.006325 µM) was 0.609 and the relative viability (NCI-H2023; first compound 0.02 µM) was 0.529. For the same compound, the relative viability (NCI-H2023; first compound 0.06325 µM) was 0.255, the relative viability (NCI-H2023; first compound 0.2 µM) was 0.0672 and the relative viability (NCI-H2170; first compound 0.002 µM) was 0.763. The relative viability (NCI-H2170; first compound 0.006325 µM) was 0.79, the relative viability (NCI-H2170; first compound 0.02 µM) was 0.526 and the relative viability (NCI-H2170; first compound 0.06325 µM) was 0.504. It also gave a relative viability (NCI-H2170; first compound 0.2 µM) of 0.172, a relative viability (NCI-H520; first compound 0.002 µM) of 0.916 and a relative viability (NCI-H520; first compound 0.006325 µM) of 0.875. It also gave a relative viability (NCI-H520; first compound 0.02 µM) of 1.01, a relative viability (NCI-H520; first compound 0.06325 µM) of 0.131 and a relative viability (NCI-H520; first compound 0.2 µM) of 0.15. For the same compound, the relative viability (NCI-H2087; first compound 0.002 µM) was 1.2, the relative viability (NCI-H2087; first compound 0.006325 µM) was 0.907 and the relative viability (NCI-H2087; first compound 0.02 µM) was 1.3. For the same compound, the relative viability (NCI-H2087; first compound 0.06325 µM) was 0.193, the relative viability (NCI-H2087; first compound 0.2 µM) was 0.184 and the relative viability (H3255; first compound 0.002 µM) was 0.775. For the same compound, the relative viability (H3255; first compound 0.006325 µM) was 0.636, the relative viability (H3255; first compound 0.02 µM) was 0.508 and the relative viability (H3255; first compound 0.06325 µM) was 0.586. It also gave a relative viability (H3255; first compound 0.2 µM) of 0.195, a relative viability (SK-MES-1; first compound 0.002 µM) of 0.82 and a relative viability (SK-MES-1; first compound 0.006325 µM) of 0.858. The relative viability (SK-MES-1; first compound 0.02 µM) was 0.593, the relative viability (SK-MES-1; first compound 0.06325 µM) was 0.306 and the relative viability (SK-MES-1; first compound 0.2 µM) was 0.133. The relative viability (HCC-827; first compound 0.002 µM) was 1, the relative viability (HCC-827; first compound 0.006325 µM) was 0.981 and the relative viability (HCC-827; first compound 0.02 µM) was 0.849. It also gave a relative viability (HCC-827; first compound 0.06325 µM) of 0.976, a relative viability (HCC-827; first compound 0.2 µM) of 0.931 and a relative viability (NCI-H1793; first compound 0.002 µM) of 0.806. For the same compound, the relative viability (NCI-H1793; first compound 0.006325 µM) was 0.536, the relative viability (NCI-H1793; first compound 0.02 µM) was 0.319 and the relative viability (NCI-H1793; first compound 0.06325 µM) was 0.212. It also gave a relative viability (NCI-H1793; first compound 0.2 µM) of 0.165, a relative viability (SW 1573; first compound 0.002 µM) of 0.714 and a relative viability (SW 1573; first compound 0.006325 µM) of 0.728. It also gave a relative viability (SW 1573; first compound 0.02 µM) of 0.501, a relative viability (SW 1573; first compound 0.06325 µM) of 0.165 and a relative viability (SW 1573; first compound 0.2 µM) of 0.113. It also gave a relative viability (LOU-NH91; first compound 0.002 µM) of 0.717, a relative viability (LOU-NH91; first compound 0.006325 µM) of 0.646 and a relative viability (LOU-NH91; first compound 0.02 µM) of 0.543. For the same compound, the relative viability (LOU-NH91; first compound 0.06325 µM) was 0.43, the relative viability (LOU-NH91; first compound 0.2 µM) was 0.381 and the relative viability (LCLC-103H; first compound 0.002 µM) was 0.969. It also gave a relative viability (LCLC-103H; first compound 0.006325 µM) of 1.01, a relative viability (LCLC-103H; first compound 0.02 µM) of 0.85 and a relative viability (LCLC-103H; first compound 0.06325 µM) of 0.928. For the same compound, the relative viability (LCLC-103H; first compound 0.2 µM) was 1, the relative viability (NCI-H1975; first compound 0.002 µM) was 0.667 and the relative viability (NCI-H1975; first compound 0.006325 µM) was 0.512. For the same compound, the relative viability (NCI-H1975; first compound 0.02 µM) was 0.233, the relative viability (NCI-H1975; first compound 0.06325 µM) was 0.137 and the relative viability (NCI-H1975; first compound 0.2 µM) was 0.126. The relative viability (HCC-44; first compound 0.002 µM) was 0.82, the relative viability (HCC-44; first compound 0.006325 µM) was 0.886 and the relative viability (HCC-44; first compound 0.02 µM) was 0.851. The relative viability (HCC-44; first compound 0.06325 µM) was 0.152, the relative viability (HCC-44; first compound 0.2 µM) was 0.154 and the relative viability (NCI-H1915; first compound 0.002 µM) was 1.09. The relative viability (NCI-H1915; first compound 0.006325 µM) was 0.987, the relative viability (NCI-H1915; first compound 0.02 µM) was 0.862 and the relative viability (NCI-H1915; first compound 0.06325 µM) was 1.08. It also gave a relative viability (NCI-H1915; first compound 0.2 µM) of 1.04, a relative viability (A-427; first compound 0.002 µM) of 1.02 and a relative viability (A-427; first compound 0.006325 µM) of 1.07. The relative viability (A-427; first compound 0.02 µM) was 0.697, the relative viability (A-427; first compound 0.06325 µM) was 1.08 and the relative viability (A-427; first compound 0.2 µM) was 1.09.
